Data taken from PubChem BioAssay (NCI).
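Exposure lasted 48 hours, with cells grown in 96-well plates and compounds tested at five concentrations. TGI: concentration producing complete growth inhibition.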

What was measured:
Experiment in all cases: NCI anticancer screen, dose series, 48 h
[1] = system: A549 NSCLC
[2] = system: NCI-H460 lung
[3] = system: DU-145 prostate
[4] = system: K-562 leukemia
[5] = system: HOP-62 NSCLC
[6] = system: RXF 393 renal
[7] = system: HOP-92 NSCLC
[8] = system: SNB-19 CNS
[9] = system: SNB-75 CNS
[10] = system: ACHN renal
[11] = system: LOX IMVI melanoma
[12] = system: NCI-H23 lung
[13] = system: CAKI-1 renal
[14] = system: A498 renal
[15] = system: TK-10 renal
[16] = system: MDA-MB-231 breast
[17] = system: MOLT-4 leukemia
[18] = system: RPMI-8226 leukemia

| Structure (SMILES) | TGI [1] [µM] | TGI [2] [µM] | TGI [3] [µM] | TGI [4] [µM] | TGI [5] [µM] | TGI [6] [µM] | TGI [7] [µM] | TGI [8] [µM] | TGI [9] [µM] | TGI [10] [µM] | TGI [11] [µM] | TGI [12] [µM] | TGI [13] [µM] | TGI [14] [µM] | TGI [15] [µM] | TGI [16] [µM] | TGI [17] [µM] | TGI [18] [µM] |
| --- | --- | --- | --- | --- | --- | --- | --- | --- | --- | --- | --- | --- | --- | --- | --- | --- | --- | --- |
| CC(O)(/C=C/c1ccccc1)P(=O)(O)c1ccccc1 (configuration not stated) | > 100 | > 100 | > 100 | > 100 | > 100 | > 100 | > 100 | > 100 | > 100 | > 100 | > 100 | > 100 | > 100 | > 100 | > 100 |  |  |  |
| c1ccc(-c2ccc(-c3cc4ccccc4[nH]3)cc2)cc1 | > 100 | > 100 | > 100 |  | > 100 |  | > 100 | > 100 | > 100 | > 100 | > 100 | > 100 | > 100 |  | > 100 | > 100 | > 100 | > 100 |
| COc1ccc(C2C3CCc4ccccc4C3=NN2S(=O)(=O)c2ccc(Cl)cc2)cc1 (configuration not stated) | > 100 | > 100 | > 100 | 41.8 | > 100 | 58.4 | > 100 | > 100 |  | 69.2 | > 100 | > 100 | > 100 |  | > 100 | > 100 | > 100 | 51.3 |
| Nc1ccc(C(=O)NN2C(=O)C(Cl)C2c2cc(Br)ccc2O)cc1 (configuration not stated) | > 100 | > 100 |  | > 100 | > 100 |  | > 100 | > 100 | > 100 | > 100 | > 100 | > 100 | > 100 | > 100 | > 100 |  |  | > 100 |
| O=C(O)C12C3C4C1C1C2C3C1(Br)C41OCCO1 (configuration not stated) | > 100 | > 100 |  | > 100 | > 100 | > 100 | > 100 | > 100 | > 100 | > 100 | > 100 | > 100 |  | > 100 | > 100 |  | > 100 | > 100 |
| COP(=O)(OC)C(=NCc1ccccc1)NNc1ccc([N+](=O)[O-])cc1 | > 100 | 79.3 |  | > 100 | 72.1 |  | 54.4 |  | 37.6 | > 100 |  | 61.4 | > 100 |  | > 100 |  | 74.8 | 57.1 |
| O/N=C/c1cc2c(cc1Br)OCO2 | > 100 | > 100 |  | > 100 | > 100 |  |  | > 100 | > 100 | > 100 | > 100 | > 100 | > 100 | > 100 | > 100 |  | > 100 | > 100 |
| C=CN1C(=O)OC[C@@H]1c1ccccc1 | > 100 | > 100 |  | > 100 | > 100 | > 100 | > 100 | > 100 | > 100 | > 100 | > 100 | > 100 | > 100 | > 100 | > 100 |  | > 100 | > 100 |
